Assay [1] concerns prostaglandin D2-induced vasodilation. Description: Prostaglandin D2-induced vasodilation in mice. The class given is in vivo, mouse. The settings on record: FIG. 1. An excerpt: Compound D suppressed PGD-2 induced vasodilation in the mouse (FIG. 1). The DP antagonists tested suppressed nicotinic acid-induced vasodilation in the mouse; data for selected compounds is provided in FIGS. 2 and 3.

The test system of assay [2] is nicotinic acid-induced vasodilation. Description: Nicotinic acid-induced vasodilation in mice (ear perfusion, laser Doppler). It counts as in vivo, mouse. The settings on record: male C57BL/6 mice, DP antagonist ~40 mpk i.p., nicotinic acid ~100 mpk s.c., FIGS. 2 and 3. The method, then: Blood flow in the mouse ear (a measure of vasodilation, a prominent component of flushing in humans) is measured after administration of nicotinic acid to mice that had been pretreated with vehicle (as a control) or a DP antagonist. Specifically, male C57BL/6 mice (˜25 g) were used in the study. Five mice were evaluated in each test group. Nembutal was diluted with water to a final concentration of 5 mg/ml and injected 0.3 ml/mouse intraperitoneally. DP antagonists were dissolved in 5% hydroxypropyl β-cyclodextrin at a final concentration of 5 mg/mi and the compounds were administered intraperitoneally at a volume of 0.2 mi/mouse (˜40 mpk). Nicotinic acid was dissolved in 5% hydroxypropyl β-cyclodextrin at a final concentration of 12.5 mg/mi. […]
Perfusion of mouse ear skin was monitored with a laser Doppler perfusion imager (PeriScan PIM II, Perimed, Sweden) every 30 seconds for 15 minutes starting 5 minutes prior to nicotinic acid administration. Percent changes in mean perfusion over the 10 minute period after vehicle or nicotinic acid administration were calculated and a graph of percent change in mean perfusion vs. time was generated for each animal. The area under the curve (AUC) of mean perfusion (% Δ×min) was then calculated from each graph and the results are expressed in mean AUC±SEM for each group.

“Also recorded” adds a separate entry of the source.

Take `CC(O)c1cc(S(C)(=O)=O)cc2c3c(n(Cc4ccc(Cl)cc4)c12)[C@@H](CC(=O)O)CC3` (some centres unmarked) [Compound D]: the “inhibition of prostaglandin D2-induced vasodilation” value in assay [1] was “inhibits; also recorded: suppressed”. The “inhibition of nicotinic acid-induced vasodilation” value in assay [2] was “inhibits”.

Source of the values: patent US20040229844A1, “Method of treating atherosclerosis, dyslipidemias and related conditions” (priority 2003, published 2004).
